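Interpolation was linear, between the two tested concentrations surrounding the appropriate level; five concentrations were tested over 48 hours in 96-well plates. Here, GI50 denotes the concentration required for 50% inhibition of growth.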 The source made the active and inactive calls. No stated cut-off is given here; in the data, active = GI50 up to about 1.1 µM and inactive = higher.
Legend:
Test in all cases: DTP human tumour cell line panel, 48 h
UACC-257 = system: UACC-257
SK-OV-3 = system: SK-OV-3
UACC-62 = system: UACC-62
NCI-H226 = system: NCI-H226
TK-10 = system: TK-10
HL-60 = system: HL-60
RXF 631 = system: RXF 631
SR = system: SR
A549 = system: A549
COLO 205 = system: COLO 205
M14 = system: M14
HT-29 = system: HT-29
SW-620 = system: SW-620
SNB-75 = system: SNB-75
SN12C = system: SN12C
CAKI-1 = system: CAKI-1
RXF 393 = system: RXF 393
LOX IMVI = system: LOX IMVI
K562 = system: K562
SF-295 = system: SF-295
NCI-H23 = system: NCI-H23
A498 = system: A498
SNB-78 = system: SNB-78
UO-31 = system: UO-31
IGROV-1 = system: IGROV-1
OVCAR-4 = system: OVCAR-4
EKVX = system: EKVX
KM-20L2 = system: KM-20L2
HOP-62 = system: HOP-62
DLD-1 = system: DLD-1
HCT-116 = system: HCT-116
SK-MEL-5 = system: SK-MEL-5
SK-MEL-28 = system: SK-MEL-28
XF498 = system: XF498
HOP-92 = system: HOP-92
KM12 = system: KM12
CCRF-CEM = system: CCRF-CEM
U-251 = system: U-251
DMS-273 = system: DMS-273
Malme-3M = system: Malme-3M
OVCAR-3 = system: OVCAR-3
ACHN = system: ACHN
OVCAR-5 = system: OVCAR-5
M19-MEL = system: M19-MEL
SK-MEL-2 = system: SK-MEL-2
NCI-H522 = system: NCI-H522
LXFL 529 = system: LXFL 529
HOP-18 = system: HOP-18
SF-539 = system: SF-539
HCT-15 = system: HCT-15
SF-268 = system: SF-268
RPMI-8226 = system: RPMI-8226
NCI-H460 = system: NCI-H460
OVCAR-8 = system: OVCAR-8
786-0 = system: 786-0
DMS-114 = system: DMS-114
MOLT-4 = system: MOLT-4
HCC 2998 = system: HCC 2998
SNB-19 = system: SNB-19

`O=C(Nc1nc2c(ncn2C2OC(CO)C(O)C2O)c(=O)[nH]1)c1ccccc1` (stereo not given) was tested, and the GI50 (UACC-257) was > 100 µM (inactive), the GI50 (SK-OV-3) was > 100 µM (inactive) and the GI50 (UACC-62) was > 100 µM (inactive). For the same compound, the GI50 (NCI-H226) was > 100 µM (inactive), the GI50 (TK-10) was > 100 µM (inactive) and the GI50 (HL-60) was > 100 µM (inactive). The GI50 (RXF 631) was > 100 µM (inactive), the GI50 (SR) was > 100 µM (inactive) and the GI50 (A549) was > 100 µM (inactive). For the same compound, the GI50 (COLO 205) was > 100 µM (inactive), the GI50 (M14) was > 100 µM (inactive) and the GI50 (HT-29) was > 100 µM (inactive). For the same compound, the GI50 (SW-620) was > 100 µM (inactive), the GI50 (SNB-75) was > 100 µM (inactive) and the GI50 (SN12C) was > 100 µM (inactive). The GI50 (CAKI-1) was > 100 µM (inactive), the GI50 (RXF 393) was 63 µM (inactive) and the GI50 (LOX IMVI) was > 100 µM (inactive). For the same compound, the GI50 (K562) was > 100 µM (inactive), the GI50 (SF-295) was > 100 µM (inactive) and the GI50 (NCI-H23) was > 100 µM (inactive). The GI50 (A498) was > 100 µM (inactive), the GI50 (SNB-78) was > 100 µM (inactive) and the GI50 (UO-31) was > 100 µM (inactive). For the same compound, the GI50 (IGROV-1) was > 100 µM (inactive), the GI50 (OVCAR-4) was > 100 µM (inactive) and the GI50 (EKVX) was > 100 µM (inactive). The GI50 (KM-20L2) was > 100 µM (inactive), the GI50 (HOP-62) was > 100 µM (inactive) and the GI50 (DLD-1) was > 100 µM (inactive). The GI50 (HCT-116) was > 100 µM (inactive), the GI50 (SK-MEL-5) was > 100 µM (inactive) and the GI50 (SK-MEL-28) was > 100 µM (inactive). The GI50 (XF498) was > 100 µM (inactive), the GI50 (HOP-92) was > 100 µM (inactive) and the GI50 (KM12) was > 100 µM (inactive). For the same compound, the GI50 (CCRF-CEM) was 2.5 µM (inactive), the GI50 (U-251) was > 100 µM (inactive) and the GI50 (DMS-273) was > 100 µM (inactive). For the same compound, the GI50 (Malme-3M) was > 100 µM (inactive), the GI50 (OVCAR-3) was > 100 µM (inactive) and the GI50 (ACHN) was > 100 µM (inactive). For the same compound, the GI50 (OVCAR-5) was > 100 µM (inactive), the GI50 (M19-MEL) was > 100 µM (inactive) and the GI50 (SK-MEL-2) was > 100 µM (inactive). The GI50 (NCI-H522) was 93.3 µM (inactive), the GI50 (LXFL 529) was > 100 µM (inactive) and the GI50 (HOP-18) was > 100 µM (inactive). For the same compound, the GI50 (SF-539) was > 100 µM (inactive), the GI50 (HCT-15) was over 100 µM and the GI50 (SF-268) was > 100 µM (inactive). The GI50 (RPMI-8226) was > 100 µM (inactive), the GI50 (NCI-H460) was > 100 µM (inactive) and the GI50 (OVCAR-8) was > 100 µM (inactive). The GI50 (786-0) was > 100 µM (inactive).
For `Cc1ccc(NC(=O)C(=O)C2C(=O)N(c3ccccc3)N=C2N)cc1C` (stereo not given), the GI50 (UACC-257) was > 100 µM (inactive), the GI50 (SK-OV-3) was > 100 µM (inactive) and the GI50 (UACC-62) was > 100 µM (inactive). For the same compound, the GI50 (NCI-H226) was > 100 µM (inactive), the GI50 (TK-10) was > 100 µM (inactive) and the GI50 (DMS-114) was > 100 µM (inactive). The GI50 (HL-60) was > 100 µM (inactive), the GI50 (RXF 631) was > 100 µM (inactive) and the GI50 (SR) was > 100 µM (inactive). The GI50 (A549) was > 100 µM (inactive), the GI50 (COLO 205) was > 100 µM (inactive) and the GI50 (M14) was > 100 µM (inactive). For the same compound, the GI50 (HT-29) was > 100 µM (inactive), the GI50 (SW-620) was > 100 µM (inactive) and the GI50 (SNB-75) was > 100 µM (inactive). The GI50 (SN12C) was > 100 µM (inactive), the GI50 (CAKI-1) was > 100 µM (inactive) and the GI50 (K562) was > 100 µM (inactive). For the same compound, the GI50 (SF-295) was > 100 µM (inactive), the GI50 (NCI-H23) was > 100 µM (inactive) and the GI50 (A498) was > 100 µM (inactive). For the same compound, the GI50 (SNB-78) was > 100 µM (inactive), the GI50 (UO-31) was > 100 µM (inactive) and the GI50 (IGROV-1) was > 100 µM (inactive). For the same compound, the GI50 (OVCAR-4) was > 100 µM (inactive), the GI50 (EKVX) was > 100 µM (inactive) and the GI50 (KM-20L2) was > 100 µM (inactive). For the same compound, the GI50 (MOLT-4) was > 100 µM (inactive), the GI50 (HOP-62) was > 100 µM (inactive) and the GI50 (DLD-1) was > 100 µM (inactive). For the same compound, the GI50 (HCT-116) was > 100 µM (inactive), the GI50 (SK-MEL-5) was > 100 µM (inactive) and the GI50 (SK-MEL-28) was > 100 µM (inactive). The GI50 (XF498) was > 100 µM (inactive), the GI50 (HOP-92) was > 100 µM (inactive) and the GI50 (KM12) was > 100 µM (inactive). For the same compound, the GI50 (CCRF-CEM) was > 100 µM (inactive), the GI50 (U-251) was > 100 µM (inactive) and the GI50 (DMS-273) was > 100 µM (inactive). For the same compound, the GI50 (Malme-3M) was > 100 µM (inactive), the GI50 (HCC 2998) was > 100 µM (inactive) and the GI50 (OVCAR-3) was > 100 µM (inactive). The GI50 (ACHN) was > 100 µM (inactive), the GI50 (OVCAR-5) was > 100 µM (inactive) and the GI50 (M19-MEL) was > 100 µM (inactive). For the same compound, the GI50 (NCI-H522) was > 100 µM (inactive), the GI50 (LXFL 529) was > 100 µM (inactive) and the GI50 (HOP-18) was > 100 µM (inactive). For the same compound, the GI50 (SF-539) was > 100 µM (inactive), the GI50 (HCT-15) was over 100 µM and the GI50 (SF-268) was > 100 µM (inactive). For the same compound, the GI50 (RPMI-8226) was > 100 µM (inactive), the GI50 (SNB-19) was > 100 µM (inactive) and the GI50 (OVCAR-8) was > 100 µM (inactive). The GI50 (786-0) was > 100 µM (inactive).
`Cn1cnc([N+](=O)[O-])c1Sc1ccccn1` was tested, and the GI50 (UACC-257) was > 100 µM (inactive), the GI50 (SK-OV-3) was > 100 µM (inactive) and the GI50 (UACC-62) was > 100 µM (inactive). The GI50 (NCI-H226) was > 100 µM (inactive), the GI50 (TK-10) was > 100 µM (inactive) and the GI50 (DMS-114) was > 100 µM (inactive). The GI50 (RXF 631) was > 100 µM (inactive), the GI50 (SR) was 50.6 µM (inactive) and the GI50 (A549) was > 100 µM (inactive). The GI50 (COLO 205) was 76.4 µM (inactive), the GI50 (M14) was > 100 µM (inactive) and the GI50 (HT-29) was > 100 µM (inactive). The GI50 (SW-620) was > 100 µM (inactive), the GI50 (SNB-75) was > 100 µM (inactive) and the GI50 (SN12C) was > 100 µM (inactive). The GI50 (CAKI-1) was > 100 µM (inactive), the GI50 (LOX IMVI) was > 100 µM (inactive) and the GI50 (K562) was > 100 µM (inactive). For the same compound, the GI50 (SF-295) was > 100 µM (inactive), the GI50 (NCI-H23) was > 100 µM (inactive) and the GI50 (A498) was > 100 µM (inactive). The GI50 (SNB-78) was > 100 µM (inactive), the GI50 (UO-31) was 87.1 µM (inactive) and the GI50 (IGROV-1) was > 100 µM (inactive). For the same compound, the GI50 (OVCAR-4) was > 100 µM (inactive), the GI50 (EKVX) was > 100 µM (inactive) and the GI50 (MOLT-4) was 38.5 µM (inactive). For the same compound, the GI50 (HOP-62) was > 100 µM (inactive), the GI50 (DLD-1) was > 100 µM (inactive) and the GI50 (HCT-116) was > 100 µM (inactive). For the same compound, the GI50 (SK-MEL-5) was > 100 µM (inactive), the GI50 (SK-MEL-28) was > 100 µM (inactive) and the GI50 (XF498) was 36.3 µM (inactive). For the same compound, the GI50 (HOP-92) was > 100 µM (inactive), the GI50 (KM12) was > 100 µM (inactive) and the GI50 (CCRF-CEM) was 48.9 µM (inactive). For the same compound, the GI50 (U-251) was > 100 µM (inactive), the GI50 (DMS-273) was > 100 µM (inactive) and the GI50 (Malme-3M) was 68.4 µM (inactive). The GI50 (HCC 2998) was > 100 µM (inactive), the GI50 (OVCAR-3) was > 100 µM (inactive) and the GI50 (ACHN) was > 100 µM (inactive). The GI50 (OVCAR-5) was > 100 µM (inactive), the GI50 (M19-MEL) was > 100 µM (inactive) and the GI50 (SK-MEL-2) was 74.6 µM (inactive). The GI50 (NCI-H522) was 74.3 µM (inactive), the GI50 (LXFL 529) was 70.5 µM (inactive) and the GI50 (HOP-18) was 14.9 µM (inactive). For the same compound, the GI50 (SF-539) was > 100 µM (inactive), the GI50 (SF-268) was > 100 µM (inactive) and the GI50 (RPMI-8226) was > 100 µM (inactive). The GI50 (NCI-H460) was > 100 µM (inactive), the GI50 (SNB-19) was > 100 µM (inactive) and the GI50 (OVCAR-8) was > 100 µM (inactive). For the same compound, the GI50 (786-0) was > 100 µM (inactive).

— ChEMBL document CHEMBL1201862, “PubChem BioAssay data set” (2004)
